Results on one compound are retold here after ChEMBL document CHEMBL4431387, “Anti-adipogenic and anti-diabetic effects of cis-3',4'-diisovalerylkhellactone isolated from Peucedanum japonicum Thunb leaves in vitro” (Bioorg Med Chem Lett, 2016).

Active and inactive are the calls of the source. No cut-off for these calls is given here.

Data set [1] relates to 3T3-L1. Put plainly: Antiadipogenic activity in mouse 3T3L1 cells assessed as suppression of adipocyte differentiation at 50 uM after 8 days by oil red o-staining based spectrophotometric analysis. It counts as functional.
Data set [2] has as its system 3T3-L1. Put plainly: Downregulation of C/EBPalpha protein expression in mouse 3T3L1 cells by SDS-PAGE analysis. The data set is classed as functional, cell-based.
In data set [3] the test system is 3T3-L1. Put plainly: Downregulation of C/EBPalpha mRNA expression in mouse 3T3L1 cells by qRT-PCR analysis. It counts as functional, cell-based. In general terms: Real-time PCR tracks product formation cycle by cycle.
Data set [4] relates to 3T3-L1. The data set can be described thus: Antiadipogenic activity in mouse 3T3L1 cells assessed as suppression of adipocyte differentiation at 30 uM after 8 days by oil red o-staining based spectrophotometric analysis. It counts as functional.
Data set [5] deals with 3T3-L1. Put plainly: Downregulation of SREBP-1c mRNA expression in mouse 3T3L1 cells by qRT-PCR analysis. It counts as functional, cell-based.
Data set [6] deals with 3T3-L1. The data set can be described thus: Antiadipogenic activity in mouse 3T3L1 cells assessed as suppression of adipocyte differentiation after 8 days by oil red o-staining based spectrophotometric analysis. It counts as functional, cell-based.
The subject of data set [7] is 3T3-L1. The data set can be described thus: Antiadipogenic activity in differentiated mouse 3T3L1 cells assessed as reduction in triglyceride levels at 20 uM after 8 days by oil red o-staining based spectrophotometric analysis relative to control. It counts as functional. The arrangement: scale not given: the % may be the effect or the level left.
Data set [8] deals with 3T3-L1. Put plainly: Induction of glucose uptake in differentiated mouse 3T3L1 cells at 50 uM preincubated for 20 mins followed by 2-deoxyglucose addition measured after 20 mins by fluorescence assay relative to control. It counts as functional.
Data set [9] relates to 3T3-L1. Put plainly: Antiadipogenic activity in mouse 3T3L1 cells assessed as suppression of adipocyte differentiation at 20 uM after 8 days by oil red o-staining based spectrophotometric analysis. It counts as functional.
For data set [10], the system named is 3T3-L1. Put plainly: Induction of glucose uptake in differentiated mouse 3T3L1 cells at 30 uM preincubated for 20 mins followed by 2-deoxyglucose addition measured after 20 mins by fluorescence assay relative to control. The data set is classed as functional.
Data set [11] has as its target T1, 5'-AMP-activated protein kinase (Mus musculus) (UniProt Q5EG47+Q8BRK8+Q6PAM0+O54950+Q91WG5+Q9R078+Q8BGM7). The data set can be described thus: Induction of AMPK phosphorylation in mouse 3T3L1 cells at 30 uM by SDS-PAGE analysis. The data set is classed as cell-based. The conditions noted are these: 3T3-L1.
Data set [12] deals with 3T3-L1. Put plainly: Cytotoxicity against mouse 3T3L1 cells assessed as reduction in cell viability at 10 to 50 uM after 48 hrs by SRB assay. It counts as cell-based. Conditions: 3t3-l1, 48 h.
Data set [13] relates to 3T3-L1. The data set can be described thus: Downregulation of PPARgamma mRNA expression in mouse 3T3L1 cells by qRT-PCR analysis. It counts as functional, cell-based.
In data set [14] the target is Alpha glucosidase (Homo sapiens) (UniProt O43451+P10253+P14410+Q2M2H8). The data set can be described thus: Inhibition of alpha-glucosidase (unknown origin) using […]-alpha-D-glucopyranoside as substrate at 10 to 50 uM preincubated for 10 mins followed by substrate addition measured after 5 mins. It counts as protein assay.
For data set [15], the system named is 3T3-L1. Put plainly: Downregulation of SREBP-1c protein expression in mouse 3T3L1 cells by SDS-PAGE analysis. It counts as functional, cell-based.
Data set [16] relates to 3T3-L1. Put plainly: Cytotoxicity against mouse 3T3L1 cells assessed as reduction in cell viability at =<50 uM after 48 hrs by SRB assay. It counts as cell-based. Conditions: 3t3-l1, 48 h. (In general: In SRB staining, fixed cells bind dye roughly in proportion to their protein.)
Data set [17] deals with T1, 5'-AMP-activated protein kinase (Mus musculus). Put plainly: Induction of AMPK phosphorylation in mouse 3T3L1 cells at 50 uM by SDS-PAGE analysis. It counts as cell-based. Conditions: 3T3-L1.
Data set [18] has as its system 3T3-L1. Put plainly: Antiadipogenic activity in differentiated mouse 3T3L1 cells assessed as reduction in triglyceride levels at 30 uM after 8 days by oil red o-staining based spectrophotometric analysis relative to control. The data set is classed as functional. Further details: scale not given: the % may be the effect or the level left.
The subject of data set [19] is 3T3-L1. Put plainly: Antiadipogenic activity in differentiated mouse 3T3L1 cells assessed as reduction in triglyceride levels at 50 uM after 8 days by oil red o-staining based spectrophotometric analysis relative to control. It counts as functional. The arrangement: scale not given: the % may be the effect or the level left.
Data set [20] has as its system 3T3-L1. Put plainly: Downregulation of PPARgamma protein expression in mouse 3T3L1 cells by SDS-PAGE analysis. It counts as functional, cell-based.

As for `CC(C)CC(=O)O[C@@H]1c2c(ccc3ccc(=O)oc23)OC(C)(C)[C@@H]1OC(=O)CC(C)C` (relative stereo), the Activity in the data set with 3T3-L1 [1] is 80%; in the data set on 3T3-L1 [2], “Dose-dependent effect”; with 3T3-L1 [3], “Dose-dependent effect”; in the data set on 3T3-L1 [4] it was 71%; in the data set on 3T3-L1 [5] it was “Dose-dependent effect”; in the data set with 3T3-L1 [7] it was 44%. In addition, the Activity was 57% with 3T3-L1 [8]; 33% with 3T3-L1 [9]; 43% in the data set with 3T3-L1 [10]; 72% in [11]; “Non-Toxic” in the data set on 3T3-L1 [12]; “Dose-dependent effect” in the data set with 3T3-L1 [13]. The Activity result is “Dose-dependent effect” in the data set on 3T3-L1 [15]; “Non-Toxic” with 3T3-L1 [16]; 103% in data set [17]; 67% in the data set with 3T3-L1 [18]; 65% in the data set with 3T3-L1 [19]; “Dose-dependent effect” with 3T3-L1 [20]. Besides, the outcome with 3T3-L1 [6] was Active. For the same compound, in [14], the inhibition entry is “Active”.
